In assay [1] the target is Apoptosis regulator Bcl-2 (Homo sapiens, UniProt P10415). The assay is described as follows: Displacement of NLWAAQRYGRELRRMSD-K(FITC)-FVD from Bcl-2 (unknown origin) by fluorescence polarization assay. A general note: Fluorescence polarisation rises when a labelled molecule tumbles more slowly, as on binding a larger partner.
Assay [2] has as its target T1, DNA topoisomerase 2 (Saccharomyces cerevisiae S288c, UniProt P06786).
T1 sequence (P06786 whole entry): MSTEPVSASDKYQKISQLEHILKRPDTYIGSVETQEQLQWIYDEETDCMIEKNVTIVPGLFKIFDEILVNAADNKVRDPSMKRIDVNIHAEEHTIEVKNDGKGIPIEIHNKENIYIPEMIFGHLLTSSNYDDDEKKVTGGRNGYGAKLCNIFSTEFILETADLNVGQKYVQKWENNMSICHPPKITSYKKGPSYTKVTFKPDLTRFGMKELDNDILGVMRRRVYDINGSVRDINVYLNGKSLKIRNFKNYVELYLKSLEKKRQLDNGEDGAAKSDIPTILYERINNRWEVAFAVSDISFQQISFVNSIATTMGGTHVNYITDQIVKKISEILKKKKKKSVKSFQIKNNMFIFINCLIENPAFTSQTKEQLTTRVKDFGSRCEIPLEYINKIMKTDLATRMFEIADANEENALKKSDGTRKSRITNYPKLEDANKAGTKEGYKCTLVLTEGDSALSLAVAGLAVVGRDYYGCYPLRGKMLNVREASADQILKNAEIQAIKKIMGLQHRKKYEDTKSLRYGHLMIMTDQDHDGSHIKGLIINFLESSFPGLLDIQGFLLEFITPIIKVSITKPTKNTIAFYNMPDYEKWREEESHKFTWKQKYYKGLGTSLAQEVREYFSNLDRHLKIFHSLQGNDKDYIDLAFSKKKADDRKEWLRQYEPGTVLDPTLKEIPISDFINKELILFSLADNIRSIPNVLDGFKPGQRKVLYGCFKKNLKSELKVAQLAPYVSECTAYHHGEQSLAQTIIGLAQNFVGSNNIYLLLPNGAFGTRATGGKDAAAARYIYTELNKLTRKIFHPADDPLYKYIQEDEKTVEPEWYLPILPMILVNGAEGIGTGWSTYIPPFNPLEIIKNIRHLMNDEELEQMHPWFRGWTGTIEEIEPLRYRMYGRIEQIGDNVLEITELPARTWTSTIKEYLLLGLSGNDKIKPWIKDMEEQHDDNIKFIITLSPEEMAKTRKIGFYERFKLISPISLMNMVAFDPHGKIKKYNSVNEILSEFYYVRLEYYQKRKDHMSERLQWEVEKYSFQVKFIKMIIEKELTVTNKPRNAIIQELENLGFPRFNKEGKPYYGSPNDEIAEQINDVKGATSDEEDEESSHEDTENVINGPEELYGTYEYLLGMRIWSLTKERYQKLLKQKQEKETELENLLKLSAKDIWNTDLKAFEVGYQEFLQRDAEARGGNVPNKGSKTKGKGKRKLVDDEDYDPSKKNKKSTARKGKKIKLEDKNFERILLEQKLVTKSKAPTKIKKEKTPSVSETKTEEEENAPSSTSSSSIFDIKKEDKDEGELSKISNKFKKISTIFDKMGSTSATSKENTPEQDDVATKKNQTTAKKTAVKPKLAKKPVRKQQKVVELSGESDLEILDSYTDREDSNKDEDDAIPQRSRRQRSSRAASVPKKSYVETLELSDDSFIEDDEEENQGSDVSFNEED
Kind of assay: Inhibition of Saccharomyces cerevisiae DNA topoisomerase 2.

Assay [3] is described as follows: Binding affinity to Homo sapiens (human) G-quadruplex DNA assessed as formation of G4TER1 mutant complex after 2 min by PCR stop assay.
Assay [4] can be described thus: Binding affinity to Homo sapiens (human) G-quadruplex DNA assessed as formation of VNTR6-1 mutant complex after 2 min by PCR stop assay.
A short description of assay [5]: Binding affinity to Homo sapiens (human) G-quadruplex DNA assessed as formation of G4TER2 mutant complex after 2 min by PCR stop assay.
Assay [6] deals with T2, DNA topoisomerase 1 (Homo sapiens, UniProt P11387).
T2 sequence (P11387 whole entry): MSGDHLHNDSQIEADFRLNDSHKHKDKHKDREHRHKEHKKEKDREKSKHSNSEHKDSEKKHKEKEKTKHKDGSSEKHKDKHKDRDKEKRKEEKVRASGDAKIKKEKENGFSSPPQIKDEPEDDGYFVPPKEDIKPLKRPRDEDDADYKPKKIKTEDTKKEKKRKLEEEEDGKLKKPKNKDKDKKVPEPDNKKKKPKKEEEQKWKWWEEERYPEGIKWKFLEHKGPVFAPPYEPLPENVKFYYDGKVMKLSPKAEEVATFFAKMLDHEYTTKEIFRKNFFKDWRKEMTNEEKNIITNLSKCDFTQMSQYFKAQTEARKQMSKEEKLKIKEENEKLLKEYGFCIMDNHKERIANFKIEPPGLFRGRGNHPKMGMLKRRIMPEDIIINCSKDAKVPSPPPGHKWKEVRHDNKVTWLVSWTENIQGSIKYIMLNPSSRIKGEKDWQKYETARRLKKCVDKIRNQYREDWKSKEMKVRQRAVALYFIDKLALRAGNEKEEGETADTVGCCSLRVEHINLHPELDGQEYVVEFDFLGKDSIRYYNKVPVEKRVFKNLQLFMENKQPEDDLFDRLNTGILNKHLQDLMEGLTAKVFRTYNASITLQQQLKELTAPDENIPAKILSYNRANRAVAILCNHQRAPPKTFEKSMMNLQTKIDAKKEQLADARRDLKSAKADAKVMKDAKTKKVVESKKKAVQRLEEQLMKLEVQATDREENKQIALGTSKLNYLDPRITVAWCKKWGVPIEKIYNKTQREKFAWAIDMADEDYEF
Kind of assay: Inhibition of DNA topoisomerase 1 (unknown origin).

pIC50, pKi: −log10 of the molar value.

Chain of Apoptosis regulator Bcl-2 (P10415 whole entry): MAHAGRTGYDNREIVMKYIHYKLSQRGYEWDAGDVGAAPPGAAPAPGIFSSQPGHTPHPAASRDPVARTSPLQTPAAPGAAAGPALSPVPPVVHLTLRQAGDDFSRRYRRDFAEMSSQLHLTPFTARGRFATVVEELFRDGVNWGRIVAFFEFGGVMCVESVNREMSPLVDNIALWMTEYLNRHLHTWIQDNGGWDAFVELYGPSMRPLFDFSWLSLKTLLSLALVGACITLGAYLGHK

Usually pKi stands for −log10 of the Ki, conventionally taken in molar units. Low values mean a large Ki, high ones a small Ki. As to `Oc1cc(O)c2c(c1)O[C@H](c1cc(O)c(O)c(O)c1)[C@H](O)C2` [EPIGALLOCATECHIN], the pKi in assay [1] is under 4.00.
Still for that read-out and setting: next, `Oc1cc(O)c2c(c1)O[C@H](c1ccc(O)c(O)c1)[C@@H](O)C2` [CATECHIN]: under 4.00.
Same read-out and setting: the value for `Oc1cc(O)c2c(c1)O[C@H](c1ccc(O)c(O)c1)[C@H](O)C2` [(-)-EPICATECHIN] was under 4.00; that for `O=C(O[C@@H]1Cc2c(O)cc(O)cc2O[C@H]1c1cc(O)c(O)c(O)c1)c1cc(O)c(O)c(O)c1` [GALLOCATECHIN GALLATE] was 6.63.
One may read the pIC50 as −log10 of the IC50, conventionally taken in molar units. On to `O=C(O[C@@H]1Cc2c(O)cc(O)cc2O[C@@H]1c1cc(O)c(O)c(O)c1)c1cc(O)c(O)c(O)c1` [EPIGALOCATECHIN GALLATE], for which, in assay [2], the pIC50 was 2.52. The pKi in assay [1] was 6.47.
`O=C(O[C@@H]1Cc2c(O)cc(O)cc2O[C@@H]1c1ccc(O)c(O)c1)c1cc(O)c(O)c(O)c1` [EPICATECHIN GALLATE]: the pKi in assay [1] was 6.40.
For the molecule `Cc1oc2nc1-c1nc(co1)-c1nc(co1)-c1nc(co1)-c1nc(co1)-c1nc(co1)C1=NC(CS1)c1nc-2c(C)o1` (centres undefined) [TELOMESTATIN], the negative-log IC50 (pIC50) in assay [3] was 5.00; in assay [4], 5.05; in assay [5], 5.00.
As to `O=c1c(O)c(-c2cc(O)c(O)c(O)c2)oc2cc(O)cc(O)c12` [MYRICETIN], in assay [6], the pIC50 was 4.43.
`O=c1c(O)cccc2c([C@H]3Oc4cc(O)cc(O)c4C[C@H]3O)cc(O)c(O)c12` [THEAFLAVANIN] showed a pKi in assay [1] of 6.54.
Same read-out and setting: next, `Oc1cc(O)c2c(c1)O[C@H](c1cc(O)c(O)c(O)c1)[C@@H](O)C2` [GALLOCATECHIN]: under 4.00.
Still for that read-out and setting: the value for `O=C(O[C@@H]1Cc2c(O)cc(O)cc2O[C@H]1c1ccc(O)c(O)c1)c1cc(O)c(O)c(O)c1` [CATECHIN GALLATE] was 6.64.

The record behind these values is ChEMBL document CHEMBL3046684, “Molecular docking study on anticancer activity of plant-derived natural products” (Med Chem Res, 2010).
